Literature values in article PMC8637765 (RSC Chemical Biology, 2021).

Test system: cancer cells

SMILES	Growth inhibition at the cellular level
O=C(Cc1cccc(OC(F)(F)F)c1)Nc1ccc(CCCCc2nnc(NC(=O)Cc3ccccn3)s2)nn1 [CB-839]	partial growth inhibition
O=C(Cc1ccccc1)Nc1nnc(CCSCCc2nnc(NC(=O)Cc3ccccc3)s2)s1 [BPTES, bis-2-(5-phenylacetamido-1,3,4-thiadiazol-2-yl)ethyl sulfide]	partial growth inhibition
